Test system: T1, OkHMGR
T1 construct: gene HMGR; cDNA from leaf
Test: spectrophotometric NADPH oxidation at […] nm, Lineweaver-Burk plot
Format: biochemical, Ocimum kilimandscharicum
Details: 7.5 mM DTT, 150 mM potassium phosphate pH 7.0, 30 °C

Row | Km (co-substrate NADPH (3.0 mM in standard assay)) | Km (co-substrate HMG-CoA (0.05 mM in standard assay)) | SMILES
1 | 88 µM |  | CC(C)(COP(=O)(O)OP(=O)(O)OC[C@H]1O[C@@H](n2cnc3c(N)ncnc32)[C@H](O)[C@@H]1OP(=O)(O)O)[C@@H](O)C(=O)NCCC(=O)NCCSC(=O)C[C@@](C)(O)CC(=O)O [HMG-CoA]
2 |  | 903 µM | NC(=O)C1=CN([C@@H]2O[C@H](COP(=O)(O)OP(=O)(O)OC[C@H]3O[C@@H](n4cnc5c(N)ncnc54)[C@H](OP(=O)(O)O)[C@@H]3O)[C@@H](O)[C@H]2O)C=CC1 [NADPH]

— publication PMC5824918, “HMG-CoA reductase from Camphor Tulsi (Ocimum kilimandscharicum) regulated MVA dependent biosynthesis of diverse terpenoids in homologous and heterologous plant systems” (Scientific Reports, 2018)
